Active and inactive are the calls of the source. The calls are words filed in the database; no cut-off is given here.
Columns and labels:
HCT-116 [1] = experiment: Cytotoxicity against human HCT-116 cells assessed as survival rate at 10 uM measured after 72 hrs by MTT assay relative to control; format: functional; conditions: read-out: Survival
MGC-803 = experiment: Cytotoxicity against human MGC-803 cells assessed as inhibition of cell growth at 10 uM measured after 72 hrs by MTT assay relative to control; format: functional
MCF7 [2] = experiment: Cytotoxicity against human MCF7 cells assessed as inhibition of cell growth at 10 uM measured after 72 hrs by MTT assay relative to control; format: functional
MKN-45 [3] = experiment: Cytotoxicity against human MKN-45 cells assessed as inhibition of cell growth at 10 uM measured after 72 hrs by MTT assay relative to control; format: functional
HeLa [4] = experiment: Cytotoxicity against human HeLa cells assessed as inhibition of cell growth at 10 uM measured after 72 hrs by MTT assay relative to control; format: functional
MCF7 [5] = experiment: Cytotoxicity against human MCF7 cells assessed as inhibition of cell growth incubated for 72 hrs by MTT assay; format: functional, cell-based; conditions: MCF7, 72 h
U-87 MG = experiment: Cytotoxicity against human U-87 MG cells assessed as inhibition of cell growth incubated for 72 hrs by MTT assay; format: functional, cell-based, U-87MG ATCC
MKN-45 [6] = experiment: Cytotoxicity against human MKN-45 cells assessed as inhibition of cell growth incubated for 72 hrs by MTT assay; format: functional, cell-based; conditions: MKN-45, 72 h
[7] = Cytotoxicity against HHL-5 cells assessed as inhibition of cell growth incubated for 72 hrs by MTT assay; format: toxicity, cell-based; conditions: human
HeLa [8] = experiment: Induction of apoptosis in human HeLa cells assessed as viable cells at 0.2 uM incubated for 24 hrs by Annexin V-FITC/PI staining based flow cytometric analysis (reference value: 90.6 %); format: functional; conditions: read-out: Activity
HeLa [9] = experiment: Induction of apoptosis in human HeLa cells assessed as early apoptotic cells at 0.2 uM incubated for 24 hrs by Annexin V-FITC/PI staining based flow cytometric analysis (reference value: 2.35 %); format: functional
HeLa [10] = experiment: Induction of apoptosis in human HeLa cells assessed as late apoptotic cells at 0.2 uM incubated for 24 hrs by Annexin V-FITC/PI staining based flow cytometric analysis (reference value: 6.58 %); format: functional
HeLa [11] = experiment: Induction of apoptosis in human HeLa cells assessed as early apoptotic cells at 0.4 uM incubated for 24 hrs by Annexin V-FITC/PI staining based flow cytometric analysis (reference value: 2.35 %); format: functional
HeLa [12] = experiment: Induction of apoptosis in human HeLa cells assessed as late apoptotic cells at 0.4 uM incubated for 24 hrs by Annexin V-FITC/PI staining based flow cytometric analysis (reference value: 6.58 %); format: functional
HeLa [13] = experiment: Induction of apoptosis in human HeLa cells assessed as necrotic cells at 0.4 uM incubated for 24 hrs by Annexin V-FITC/PI staining based flow cytometric analysis (reference value: 0.44 %); format: functional
HCT-116 [14] = experiment: Induction of apoptosis in human HCT-116 cells assessed as viable cells at 0.2 uM incubated for 24 hrs by Annexin V-FITC/PI staining based analysis (reference value: 92.4 %); format: functional; conditions: read-out: Activity
HCT-116 [15] = experiment: Induction of apoptosis in human HCT-116 cells assessed as early apoptotic cells at 0.2 uM incubated for 24 hrs by Annexin V-FITC/PI staining based analysis (reference value: 7.40 %); format: functional
HCT-116 [16] = experiment: Induction of apoptosis in human HCT-116 cells assessed as late apoptotic cells at 0.2 uM incubated for 24 hrs by Annexin V-FITC/PI staining based analysis (reference value: 0.095 %); format: functional
HCT-116 [17] = experiment: Induction of apoptosis in human HCT-116 cells assessed as viable cells at 0.4 uM incubated for 24 hrs by Annexin V-FITC/PI staining based analysis (reference value: 92.4 %); format: functional; conditions: read-out: Activity
HCT-116 [18] = experiment: Induction of apoptosis in human HCT-116 cells assessed as late apoptotic cells at 0.4 uM incubated for 24 hrs by Annexin V-FITC/PI staining based analysis (reference value: 0.095 %); format: functional
[19] = Drug localization in human HCT-116 cell mitochondria incubated for 8 hrs by Mito-tracker green dye based fluorescence microscopic analysis; format: ADME; conditions: hct-116, 8 h
HeLa [20] = experiment: Upregulation of phosphorylated eIF2alpha expression in human HeLa cells at 0.2 to 0.4 uM measured after 48 hrs by Western blot analysis; format: functional, cell-based; conditions: dose 0.2-0.4 µM
HeLa [21] = experiment: Upregulation of CHOP expression in human HeLa cells at 0.2 to 0.4 uM measured after 48 hrs by Western blot analysis; format: functional, cell-based; conditions: dose 0.2-0.4 µM
HCT-116 [22] = experiment: Upregulation of phosphorylated PERK expression in human HCT-116 cells at 0.2 to 0.4 uM measured after 48 hrs by Western blot analysis; format: functional, cell-based; conditions: dose 0.2-0.4 µM
HCT-116 [23] = experiment: Upregulation of CHOP expression in human HCT-116 cells at 0.2 to 0.4 uM measured after 48 hrs by Western blot analysis; format: functional, cell-based; conditions: dose 0.2-0.4 µM
HeLa [24] = experiment: Induction of ROS production in human HeLa cells at 0.2 to 0.4 uM incubated for 24 hrs by DCFH-DA probe based flow cytometric analysis; format: functional, cell-based; conditions: dose 0.2-0.4 µM
HeLa [25] = experiment: Induction of ROS production in human HeLa cells assessed as fold change at 0.2 to 0.4 uM incubated for 24 hrs by DCFH-DA probe based flow cytometric analysis; format: functional; conditions: dose 0.2-0.4 µM
HeLa [26] = experiment: Cell cycle arrest in human HeLa cells assessed as accumulation of cells at G2/M phase at 0.2 uM measured after 24 hrs by PI staining based flow cytometric analysis (reference value: 22.8 %); format: functional
HeLa [27] = experiment: Cell cycle arrest in human HeLa cells assessed as accumulation of cells at G0/G1 phase at 0.4 uM measured after 24 hrs by PI staining based flow cytometric analysis (reference value: 54.7 %); format: functional
HeLa [28] = experiment: Cell cycle arrest in human HeLa cells assessed as accumulation of cells at G2/M phase at 0.4 uM measured after 24 hrs by PI staining based flow cytometric analysis (reference value: 22.8 %); format: functional
HCT-116 [29] = experiment: Cell cycle arrest in human HCT-116 cells assessed as accumulation of cells at G2/M phase at 0.4 uM measured after 24 hrs by PI staining based flow cytometric analysis (reference value: 26.4 %); format: functional
HeLa [30] = experiment: Cell cycle arrest in human HeLa cells assessed as increase in cyclin B1 expression at 0.2 to 0.4 uM incubated for 24 hrs by Western blot analysis; format: functional, cell-based; conditions: dose 0.2-0.4 µM
HCT-116 [31] = experiment: Cell cycle arrest in human HCT-116 cells assessed as increase in cyclin B1 expression at 0.2 to 0.4 uM incubated for 24 hrs by Western blot analysis; format: functional, cell-based; conditions: dose 0.2-0.4 µM
HeLa [32] = experiment: Antitumor activity against human HeLa cells xenografted in female BALB/c nude mouse assessed as reduction in tumor cell volume at 20 mg/kg, ip administered as liposome formulation once daily for 13 days relative to control; format: functional; design: scale not given: the % may be the effect or the level left; conditions: time 13 day
[33] = Toxicity in female BALB/c nude mouse xenografted with human HeLa cells assessed as animal survival at 20 mg/kg, ip administered as liposome formulation once daily for 13 days; format: organism-based; conditions: in vivo, 312 h, time 13 day
[34] = Toxicity in female BALB/c nude mouse xenografted with human HeLa cells assessed as body weight loss at 5 to 20 mg/kg, ip administered as liposome formulation once daily for 13 days; format: organism-based; conditions: in vivo, 312 h, dose 5-20 mg/kg, time 13 day

In the case of COc1ccc(C2=CC(=O)O/C2=C\c2ccc(O)cc2)cc1, the viability at 10 µM (HCT-116 [1]) is reported as 19.7%, the inhibition at 10 µM (MGC-803) is reported as > 50% and the inhibition at 10 µM (MCF7 [2]) is reported as > 50%. For the same compound, the inhibition at 10 µM (MKN-45 [3]) was > 50%, the inhibition at 10 µM (HeLa [4]) was > 50% and the IC50 (MCF7 [5]) was 1000 nM. The IC50 (U-87 MG) was 2400 nM, the IC50 (MKN-45 [6]) was 200 nM and the IC50 at 72 h [7] was 6300 nM. For the same compound, the viability at 0.2 µM (HeLa [8]) was 83.2%, the Activity (HeLa [9]) was 4.86% and the Activity (HeLa [10]) was 11.5%. It also gave an Activity (HeLa [11]) of 10.5%, an Activity (HeLa [12]) of 40.6% and an Activity (HeLa [13]) of 1%. It also gave a viability at 0.2 µM (HCT-116 [14]) of 82.7%, an Activity (HCT-116 [15]) of 3.69% and an Activity (HCT-116 [16]) of 7.71%. The viability at 0.4 µM (HCT-116 [17]) was 69.6%, the Activity (HCT-116 [18]) was 14.7% and the Drug uptake [19] was “Not_active”. The Activity (HeLa [20]) was “Active; Compound Impacts Endoplasmic Reticulum Stress Related Perk-Eif2Alpha-Chop Signalling Pathway”, the Activity (HeLa [21]) was “Active; Compound Impacts Endoplasmic Reticulum Stress Related Perk-Eif2Alpha-Chop Signalling Pathway” and the Activity (HCT-116 [22]) was “Active; Compound Impacts Endoplasmic Reticulum Stress Related Perk-Eif2Alpha-Chop Signalling Pathway”. The Activity (HCT-116 [23]) was “Active; Compound Impacts Endoplasmic Reticulum Stress Related Perk-Eif2Alpha-Chop Signalling Pathway”, the Activity (HeLa [24]) was “Active” and the “fold change (FC)” value (HeLa [25]) was >4. It also gave an Activity (HeLa [26]) of 58.6%, an Activity (HeLa [27]) of 8.71% and an Activity (HeLa [28]) of 71.1%. The Activity (HCT-116 [29]) was 31.6%, the Activity (HeLa [30]) was “Active” and the Activity (HCT-116 [31]) was “Active”. The Activity (HeLa [32]) was >60%, the Activity [33] was “Non-toxic” and the Activity [34] was “Non-toxic”.
